Values after ≈ are worked out from the molar mass of the structure shown. Like-named read-outs stand apart in the source and are kept apart here.
Key:
[1] = tested on: human primary preadipocytes; assay: Adipocyte differentiation of human primary preadipocytes (Oil Red O staining); format: cell-based; conditions: 1c 1-10 μM; CIU 10 μM
Experimental: Human primary preadipocytes were obtained from stromal vascular fraction of subcutaneous fat from anonymous donors undergoing elective cosmetic surgery. Adipose tissue was digested by collagenase solution (0.3 U/ml in 1% BSA/PBS) for 45 min at 37° C. with constant shaking. Floating mature adipocytes were removed and the pellet containing the stromal vascular fraction was resuspended in erythrocyte lysis buffer. […] After 4 days the medium was changed to 3FC medium (QuickDiff medium without dexamethasone, IBMX and rosiglitazone). Adipocytes were cultured for additional 14 days before medium was changed to basal medium consisting of DMEM/Ham's F12 with biotin and panthotenate. This investigation conforms to the ethical principles outlined in the Declaration of Helsinki and was approved by the university ethics committee (Ethik-Kommission des Fachbereichs Medizin der Goethe-Universitat Frankfurt am Main). Total RNA was isolated using PeqGold RNAPure (Peqlab) according to manufacturer's instructions and was transcribed to cDNA using Maxima First Strand cDNA synthesis kit (Thermo Scientific), following manufacturer's instructions. Quantitative PCR was performed with iQ SYBR green Supermix (Bio-Rad) using a CFX96 (Bio-Rad) system. Expression was normalized to actin RNA.

3T3-L1 fibroblasts = assay: Adipocyte differentiation of murine 3T3-L1 cells (Oil Red O staining); format: cell-based; conditions: 1c 1-10 μM; CIU 10 μM
Experimental: 3T3-L1 cells were subcultured in DMEM containing 10% newborn calf serum in a humidified atmosphere at 37° C., 5% CO2. […] Briefly, cells were seeded in 6-well plates (2.5×10^6/well). Differentiation was started at day 3 by addition of 1 μg/ml insulin, 0.25 dexamethasone and 0.5 mM isobutylmethylxanthine in DMEM supplemented with 10% fetal calf serum. At day 5 medium was replaced by medium containing only insulin for 2 more days. After this, cells were kept for lipid droplet accumulation in basal medium without additions until day 15.

recombinant human sEH = target: T1, recombinant human sEH (Homo sapiens, UniProt P34913); assay: biochemical
T1 sequence (P34913 1-555): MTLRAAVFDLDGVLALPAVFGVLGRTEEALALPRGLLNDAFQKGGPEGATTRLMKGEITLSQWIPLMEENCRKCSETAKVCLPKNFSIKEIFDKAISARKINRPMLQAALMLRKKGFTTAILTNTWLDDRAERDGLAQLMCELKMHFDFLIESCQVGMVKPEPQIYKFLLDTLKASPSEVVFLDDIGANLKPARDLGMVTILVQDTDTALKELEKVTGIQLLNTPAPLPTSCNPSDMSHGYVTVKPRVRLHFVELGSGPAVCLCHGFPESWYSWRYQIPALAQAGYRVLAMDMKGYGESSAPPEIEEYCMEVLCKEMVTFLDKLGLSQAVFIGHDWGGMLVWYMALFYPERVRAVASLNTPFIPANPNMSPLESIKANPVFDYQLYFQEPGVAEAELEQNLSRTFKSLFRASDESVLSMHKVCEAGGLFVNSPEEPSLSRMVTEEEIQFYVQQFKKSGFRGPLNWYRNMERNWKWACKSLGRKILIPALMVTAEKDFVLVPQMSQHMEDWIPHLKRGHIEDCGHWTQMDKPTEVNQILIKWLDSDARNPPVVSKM

PPARδ = target: T2, PPARδ (Homo sapiens, UniProt Q03181); assay: PPAR transactivation assay in COS-7 cells (Gal4-hPPAR-LBD, luciferase); format: cell-based
T2 construct: expressed in transfected cells; host or cells: COS-7
T2 sequence (Q03181 211-439): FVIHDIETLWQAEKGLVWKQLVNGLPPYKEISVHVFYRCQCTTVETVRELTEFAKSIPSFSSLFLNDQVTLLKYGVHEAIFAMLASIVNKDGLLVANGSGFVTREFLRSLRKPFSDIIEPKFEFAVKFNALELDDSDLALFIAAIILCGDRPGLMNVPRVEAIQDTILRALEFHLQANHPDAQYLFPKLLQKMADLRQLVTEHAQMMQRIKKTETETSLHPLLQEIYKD

PPARα = target: T3, PPARα (Homo sapiens, UniProt Q07869); format: cell-based
T3 construct: expressed in transfected cells; host or cells: COS-7
T3 sequence (Q07869 239-466): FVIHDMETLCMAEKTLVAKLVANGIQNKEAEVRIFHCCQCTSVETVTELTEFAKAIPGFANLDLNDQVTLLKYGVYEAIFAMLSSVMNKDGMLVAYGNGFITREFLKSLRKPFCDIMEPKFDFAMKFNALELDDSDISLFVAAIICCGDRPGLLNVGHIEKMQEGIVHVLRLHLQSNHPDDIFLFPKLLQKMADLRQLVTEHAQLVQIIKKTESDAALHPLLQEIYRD

[2] = after p.o. 30 mg/kg bw of 1b, all time points
Experimental: Blood was sampled 15 min, 30 min, 1 h, 2 h, 4 h and 8 h after test item application and only 8 h after vehicle application. Each drug treated mouse was sampled twice (0.25 and 0.5 h, 1 and 2 h, 4 and 8 h) via retro orbital puncture. Blood was collected in tubes containing lithium-heparin, stored on ice and subsequently centrifuged at 6000 rpm for 10 minutes at 4° C. (Heraeus biofuge fresco). The plasma was prepared within 45 min after sampling and kept at −20° C. until being assayed. For further kinetic and dynamic analysis the tissues (brain, liver, abdominal fat) were collected 30 min, 2h and 8 h post dose, after the second plasma sampling of each drug treated mouse. Tissue of the vehicle group was sampled only once, 8 h post dose. A volume of 40 μl acetonitrile containing the internal standard (300 ng/ml Diazepam) was added to 20 μl of mouse plasma sample, plasma calibration standard and plasma QC samples. Samples were vigorously shaken and centrifuged for 10 minutes at 6000 g and 20° C. The particle free supernatant was diluted 1:1 with water. An aliquot was transferred to 200 μl sampler vials and subsequently subjected to LC MS with an injection volume of 20 pl. The brain samples were homogenized in PBS (1+1, w/v) using the Precellys 24/Dual homogenizer. A volume of 20 μl of the brain homogenate was mixed (1+1 v/v/) with 20 μl mouse blank plasma. Then 80 μl acetonitrile containing the internal standard (300 ng/ml Diazepam) were added. Samples were vigorously shaken and centrifuged for 10 minutes at 6000 g and 20° C. The particle free supernatant was diluted 1:1 with water. An aliquot was transferred to 200 μl sampler vials and subsequently subjected to LC MS with an injection volume of 20 μl. Mass spectrometry was performed on a TSQ Quantum Discovery Max triple quadrupole mass spectrometer equipped with an electrospray (ESI) interface (Thermo Fisher Scientific, USA) connected to a PC running the standard software Xcalibur 2.0.7. […]

[3] = Water solubility approximation; format: physicochemical; conditions: PBS with 0.01% Polysorbate 20, aqueous with cosolvent or surfactant or cyclodextrin, kinetic from dmso stock; PBS pH 7.4, 0.01% Polysorbate 20, 1% DMSO; precipitation at 650 nm; read-out: w.s. (water solubility)
Experimental: PBS at pH 7.4 with 0.01% Polysorbate 20 (Tween) was combined with 1% of a DMSO solution of the inquired compound in a 96-well transparent flat bottom microtiter plate. Precipitation of the compound was measured at 650 nm with a Tecan Infinite 200 (Tecan Group Ltd, Mannedorf, Switzerland).

PPARγ = target: T4, PPARγ (Homo sapiens, UniProt P37231); assay: cell-based; format: cell-based; conditions: for EC50 PPARγ: i.a. = inactive; for activation at 10 µM: COS-7, read-out: PPARγ activation @10 μM, at 10 μM, compared to pioglitazone 1 μM
T4 construct: expressed in transfected cells; host or cells: COS-7
T4 sequence (P37231 238-503): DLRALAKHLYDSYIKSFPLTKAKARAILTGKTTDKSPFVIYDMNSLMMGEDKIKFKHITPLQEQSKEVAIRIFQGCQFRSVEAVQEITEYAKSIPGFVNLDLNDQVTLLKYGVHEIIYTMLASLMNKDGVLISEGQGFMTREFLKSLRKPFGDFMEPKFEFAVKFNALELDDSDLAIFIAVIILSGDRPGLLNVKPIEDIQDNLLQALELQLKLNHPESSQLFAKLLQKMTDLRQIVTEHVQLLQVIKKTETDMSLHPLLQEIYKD
Experimental: COS-7 cells (PPAR) were grown in DMEM high glucose, supplemented with 10% fetal calf serum (FCS), 1% sodium pyruvate (SP) and 1% penicillin/streptomycin (PS) at 37° C. and 5% CO2. Used plasmids for PPAR transactivation assay are shown under supporting informations.
The day before transfection, COS-7 cells were seeded in 96-well plates with a density of 30,000 cells per well. Transient transfection was carried out using Lipofectamine LTX reagent (Invitrogen, Carlsbad, Calif., USA) according to the manufacturer's protocol with pFR-Luc (Stratagene), pRL-SV40 (Promega) and the Ga14-fusion receptor plasmids (pFA-CMV-hPPAR-LBD) of the respective PPAR subtype. 5 h after transfection, medium was changed to DMEM without phenol red and 10% FCS, supplemented with 1% SP, 1% PS and 1% L-glutamine, now additionally containing 0.1% DMSO and the respective test compound or 0.1% DMSO alone as untreated control. Each concentration was tested in triplicate wells and each experiment was repeated independently at least three times. Following overnight incubation with the test compounds, cells were assayed for luciferase activity using Dual-Glo™ Luciferase Assay System (Promega) according to the manufacturer's protocol. Luminescence was measured with an Infinite m200 luminometer (Tecan Deutschland GmbH). Each concentration of the compounds was tested in triplicate wells. Normalization for transfection efficacy and cell growth was done by division of the firefly luciferase data by renilla luciferase data resulting in relative light units. Activation factors were obtained by dividing by DMSO control. […] All compounds were evaluated by comparison of the achieved maximum effect to that of the reference compound (pioglitazone for PPARγ, GW7647 for PPARa, and L165041 for PPARS each with 1 μM). Data are expressed as mean±SE; n≥3.
The Gal4-fusion receptor plasmids pFA-CMV-PPARa-LBD, pFA-CMV-PPARS-LBD and pFA-CMV-PPARγ-LBD containing the hinge region and ligand binding domain (LBD) for each of the PPAR subtypes, respectively, were constructed by integrating cDNA fragments obtained from PCR amplification of human monocytes into the SmaI/XbaI cleavage site of the pFA-CMV vector (Stratagene, La Jolla, Calif., USA) and have already been published. […] Frame and sequence of the fusion receptors were verified by sequencing. pFR-Luc (Stratagene) was used as reporter plasmid and pRL-SV40 (Promega) for normalization of transfection efficacy and cell growth.

[4] = read-out: sEH IC50 / inhibitory potency (unit inferred)

SMILES: O=C(Nc1ccc(I)cc1)NC1CCCCC1 [CIU, N-cyclohexyl-N′-iodophenyl urea, reference compound]
- adipocyte differentiation (Oil-Red O) [1]: not able to start differentiation
- adipocyte differentiation (Oil-Red O) (3T3-L1 fibroblasts): able to start adipocyte differentiation

SMILES: CCOC(=O)C(CC)Cc1ccc(C(=O)NCc2ccccc2C(F)(F)F)cc1 (stereo not shown) [Compound 1b, Ethyl 2-ethyl 3-[4-(N-((2-trifluoromethyl)benzyl)benzamide)]propanoate]
- IC50 (recombinant human sEH; read-out: IC50 sEH (converted)): 44 ± 5 nM
- EC50 PPARδ (PPARδ; i.a. = inactive): i.a.
- EC50 PPARα (PPARα; i.a. = inactive): i.a.
- 1b in plasma [2]: not detected

SMILES: CCOC(=O)C(CC)Cc1ccc(C(=O)NCc2ccccc2Br)cc1 (stereo not shown) [Compound 5b, Ethyl 2-ethyl 3-[4-(N-((2-bromo)benzyl)benzamide)]propanoate]
- solubility [3]: 25 µM (≈ 10.5 µg/mL)
- EC50 PPARδ (PPARδ; i.a. = inactive): n.t. i.a. i.a. n.t.
- EC50 PPARα (PPARα; i.a. = inactive): n.t. i.a. i.a. n.t.
- EC50 PPARγ (PPARγ): i.a.

SMILES: O=C(O)c1ccc(-c2ccc(C(=O)NCc3ccccc3C(F)(F)F)cc2)cc1 [Compound 25]
- IC50 (recombinant human sEH; read-out: IC50 sEH (converted)): 170 nM
- solubility [3]: 5 µM (≈ 2 µg/mL)
- EC50 PPARδ (PPARδ): i.a.
- EC50 PPARα (PPARα): i.a.
- activation at 10 µM (PPARγ): ~30%

SMILES: O=C(O)c1cccc(-c2ccc(C(=O)NCc3ccccc3C(F)(F)F)cc2)c1 [Compound 26]
- IC50 (recombinant human sEH; [4]): 1000 nM
- EC50 PPARδ (PPARδ): i.a.
- EC50 PPARα (PPARα): i.a.
- activation at 10 µM (PPARγ): ~30%

SMILES: N#Cc1ccc(C(=O)NCc2ccccc2C(F)(F)F)cc1 [Compound 27, 4-Cyano-N-(2-(trifluoromethyl)benzyl)benzamide]
- IC50 (recombinant human sEH; [4]): 64 nM
- EC50 PPARδ (PPARδ; i.a. = inactive): remained unaffected
- EC50 PPARα (PPARα; i.a. = inactive): remained unaffected
- EC50 PPARγ (PPARγ): remained unaffected

SMILES: O=C(NCc1ccccc1C(F)(F)F)c1ccc(-c2nnn[nH]2)cc1 [Compound 28, [N-(2-(Trifluoromethyl)benzyl)benzamid]-4-(1H-tetrazole)]
- IC50 (recombinant human sEH; read-out: IC50 sEH (converted)): 5000 nM
- solubility [3]: 500 µM (≈ 174 µg/mL)
- EC50 PPARδ (PPARδ; i.a. = inactive): i.a.
- EC50 PPARα (PPARα; i.a. = inactive): i.a.
- EC50 PPARγ (PPARγ): i.a.
